# Reference: a melting point compilation (Tetko et al.; mined from patent text by program, amines drawn as free bases though some values may be those of a salt)
row,Structure (SMILES),melting point
1,O=C(Oc1cccc(C(F)(F)F)c1)c1cc2cc(CCl)ccc2oc1=O,162 to 163 °C
2,CCCCCCCNC(=O)Nc1ccc(OC)cc1C(=O)NCC1CCN(C(c2ccccc2)c2ccccc2)CC1,189 to 191 °C
3,COc1ccc(-c2cc(C(F)(F)F)n3ncc(C(=O)Nc4cccc(S(=O)(=O)N5CCOCC5)c4)c3n2)cc1,203 °C
4,Cc1nn(C)c2c1N(C(=O)CN(C(C)C)C(C)C)c1ccccc1NC2=O,154 to 156 °C
5,COc1ccc(C(=O)c2[nH]c3ccc(Cl)cc3c2CC(=O)O)cc1,232 to 235 °C
6,c1ccc(Sc2ccc3[nH]ccc3c2)cc1,97 to 99 °C
7,CN(C)Cc1ccc(CSCCNC2=NS(=O)(=O)N=C2N)o1,156 to 158 °C
8,CC(=O)N(C(C)=O)c1nsc2ccccc12,65 to 67 °C
9,CS(=O)(=O)N1Cc2ccccc2C1,131 to 132 °C
10,CCOc1ccc(C(=O)CCC(=O)Nc2cc(OCc3ccccc3)cc(-c3ccccc3)n2)cc1OCC,156 to 157 °C
11,Cc1cc(Sc2cc(C)c(O)c(C)c2)cc(C)c1O,142 °C
12,CCc1cc(N(C)Cc2ccc3oc(-c4ccccc4C#N)cc3c2)n2nccc2n1,143 °C
13,CCCCCCCCCCCCCCCc1cc2cc(C(=O)O)ccc2n1C,127 to 128 °C
14,Fc1ccc(-c2[nH]nc(C3=C[C@@H]4C[C@@H](c5ccccc5)CN4CC3)c2-c2ccncc2)cc1Cl,179 to 180 °C
15,CC(C)(C=O)S(=O)(=O)c1ccccc1,103 to 104 °C
16,CC(C)(C)c1cc(-c2cc(C(C)(C)C)cc(C(C)(C)C)c2O)c(O)c(C(C)(C)C)c1,190 to 195 °C
17,CN(C)C=Nc1ccc(-n2ncnc2-c2ccc(F)cc2)cc1,90 to 93 °C
18,O=C(O)c1ccc(Oc2c(-c3ccc(O)cc3)c(C(F)(F)F)cc3ccccc23)cc1,244 to 245 °C
19,CCOC(=O)C(C#N)=Cc1ccc(OC)c(OC2CCCC2)c1,109 to 110 °C
20,OC(c1ccc(Cl)cc1)(c1cccnc1)c1ccc2noc(-c3cccc(Cl)c3)c2c1 (configuration not stated),199 °C
21,CC1=CC(c2cccc(Cl)c2Cl)C(c2nnco2)=C(C)N1 (configuration not stated),235 °C
22,O=C(NC(CCl)c1ccc(-c2ccc(S(=O)(=O)C(F)F)cc2)cc1)c1c(F)cccc1F (configuration not stated),146 to 149 °C
23,CCCCOC(=O)c1ccc2nc(N)[nH]c2c1,183 to 185 °C
24,CCOC(=O)COc1ccc(C(=O)[C@@H](NC(=O)c2ccc(C(=N)NC(=O)OC(C)(C)C)cc2)[C@@H](C)OC(C)(C)C)cc1,95 to 97 °C
25,O=C1CN2CCC1(Cc1ccccc1)CC2,111 °C

row,Structure (SMILES),melting point
1,CCc1nn(C2CCCC2)c2cc(-c3cccs3)ccc12,60 to 64 °C
2,COC(=O)c1cc(C(C)=O)c(OC(C)=O)cc1NC(=O)C(F)(F)F,130 to 131 °C
3,Cc1ccc(C(=O)C2=C(O)C(=O)N(c3ccc(C)nn3)C2c2ccc(C(F)(F)F)cc2)cc1 (configuration not stated),278 °C
4,Oc1ccc2cc(Br)cc(F)c2c1,124 to 126 °C
5,COc1ccc(C(NC(C)c2cc(F)cc(F)c2)c2cc(N)ccc2OC)cc1 (configuration not stated),105 to 106 °C
6,CCOc1c(-c2ccc(S(C)(=O)=O)cc2)cnn(-c2ccc(F)c(F)c2)c1=O,121 to 123 °C
7,O=CC1C(=O)NC(=O)N1CCCCCCC(=O)O (configuration not stated),224 to 225 °C
8,CCC(C)OC(=O)CCC(S)(C#N)C1=NCCc2cc(OC)c(OC)cc21 (configuration not stated),120 °C
9,CC(O)c1cccc(-c2ccc3nc(-c4ccc(Cl)cc4)cn3c2)c1F (configuration not stated),193 to 195 °C
10,CCC(Cc1ccc(OC)c(C(=O)NCc2ccc(C(F)(F)F)cc2)c1)C(=O)O (configuration not stated),128 to 130 °C
11,CCc1cccc(C)c1S(=O)(=O)c1nn(C(=O)N(CC)CC)cc1C#N,101 to 102 °C
12,COC(=O)CCCc1cc2cc(Cl)ccc2n1S(=O)(=O)c1ccc(C(C)C)cc1,95 to 97 °C
13,COc1ccc(C2C(=O)NC(C)(C(C)C)C2=O)c(Cl)c1 (configuration not stated),130 to 140 °C
14,Cc1nsc(Br)c1S(=O)(=O)NC(C)(C)C,118 to 123 °C
15,CCNc1cc(C(C)=NO)ccn1,155 to 156 °C
16,CC(C)[C@H](NC(=O)CNC(=O)OCC1c2ccccc2-c2ccccc21)C(=O)O,69 to 71 °C
17,O=C(O)C1CSC(c2ccccc2OCCCCO[N+](=O)[O-])N1 (configuration not stated),108 to 110 °C
18,Clc1ccc(/C=C/c2cc(Cl)cc(Cl)c2)cc1,94 to 96 °C
19,N#CC1C=Cc2cc(Cl)ccc2N1C(=O)c1ccccc1 (configuration not stated),141 to 143 °C
20,COC(=O)CCCC#Cc1cc(Cl)ccc1NS(=O)(=O)c1ccc2sc(C)nc2c1,68 to 72 °C
21,CC(C)=NNC1=NCc2c[nH]c3cccc1c23,200 to 201 °C
22,COc1ccc(N2CCOCC2)c2sc(-c3nc4c([nH]3)CCN(C(=O)c3ccccc3C)CC4)nc12,194 to 196 °C
23,CC(=O)Nc1ccc(N)c(C(O)c2ccccc2Cl)c1 (configuration not stated),137 to 138 °C
24,NS(=O)(=O)c1cccc(NC(=O)c2cnn3c(C(F)(F)F)cc(-c4ccc(C(F)(F)F)cc4)nc23)c1,155 °C
25,CC(C)OC(=O)c1cc(-c2nn(C)c(C(F)(F)F)c2Cl)c(F)cc1Cl,69 °C

row,Structure (SMILES),melting point
1,CS(=O)(=O)Nc1ccc(CNC(=O)c2cccnc2Oc2ccc(F)cc2)cc1,107 to 109 °C
2,CCN(c1nc(C)cc(C)n1)c1ccc(C(C)C)cc1SC,64 to 66 °C
3,Cc1cn(-c2cccc(C3=Nc4ccc(-c5ccccc5F)cc4NC(=O)C3)c2)c(C)n1,92 °C
4,CCOC(=O)C1CCC2(CCN(S(=O)(=O)c3ccc(C)cc3)c3ccccc3C2)C1O (configuration not stated),139 to 140 °C
5,CN(C)c1sc2cc(OCc3ccccc3)ccc2c1C(=O)c1ccc(F)c(C(F)(F)F)c1,164 to 167 °C
6,CC(C)c1sc2ncnc(N)c2c1-c1ccc(NC(=O)c2ccccc2)cc1,> 250 °C
7,CN(O)CCCCc1ccc2c(c1)C(=O)c1sccc1CO2,107 to 108 °C
8,CN1CC=C(c2c[nH]c3ccc(NC(=N)c4ccco4)cc23)CC1,212 to 215 °C
9,Cc1c(C#N)c(N)nc(Cl)c1C#N,210 °C
10,O=C(O)[C@H]1C[C@H](CCc2ccccc2)Oc2ccc(F)cc21 (relative stereo),105 to 108 °C
11,Clc1ccc(C2(Cn3ccnc3)OC2c2ccc(Cl)cc2Cl)cc1 (configuration not stated),102 to 103 °C
12,Cc1cccc(-c2nn(C)cc2-c2ccc(F)c(-c3ccc(S(C)(=O)=O)cc3)c2)n1,66 to 67 °C
13,NS(=O)(=O)c1ccc(N2CCN(Cc3cn4cc(Cl)ccc4n3)CC2)cc1,255 to 256 °C
14,CCOC(=O)c1ccc(N=C(Nc2ccc(C(=O)OCC)cc2)c2ccc(-c3ccccc3)cc2)cc1,152 to 160 °C
15,CCOC(=O)c1c(Cc2nc[nH]n2)nc2sc3cnccc3c2c1-c1ccc(OC)c(OC)c1,172 to 174 °C
16,CC(C)(C)OC(=O)NCC(N)c1c[nH]c2ccc(Br)cc12 (configuration not stated),151 °C
17,CC(O)c1nnc2n1-c1sc(Cl)cc1C(c1ccccc1Cl)=NC2 (configuration not stated),118 to 120 °C
18,CC(C)(C)Nc1c([N+](=O)[O-])cnc2ccccc12,106 to 108 °C
19,CCc1cc(O)c(C(C)=O)c(OC2OC(COC(C)=O)C(OC(C)=O)C(OC(C)=O)C2OC(C)=O)c1 (configuration not stated),125 to 127 °C
20,CCC(C)(COc1nn2ncnc2cc1C)CS(N)(=O)=O (configuration not stated),189 to 190 °C
21,CC(C)OC(=O)c1ccc(=O)n(CCNC(=O)c2cccnc2)c1,160 to 161 °C
22,CSc1nnc(N(C(=O)CCl)c2c(C)cccc2C)n1C,145 to 147 °C
23,Cn1nnc(-c2ccc3[nH]cc(C4=CCN(CCN5CCNC5=O)CC4)c3c2)n1,249 to 252 °C
24,O=S(=O)(c1ccc(Nc2nccc(Nc3ccc(F)cc3)n2)cc1)N(CCN1CCCC1)[C@H]1CC[C@H](O)CC1,135 °C
25,CC(c1cccc(F)c1)n1ncc(-c2ccc(S(N)(=O)=O)cc2)c(-c2ccc(F)cc2)c1=O (configuration not stated),192 to 194 °C

row,Structure (SMILES),melting point
1,O=C(O)C=Cc1ccc2cc[nH]c2c1,215 to 217 °C
2,CCCOCCOc1ccc(-c2ccc3c(c2)C=C(C(=O)Nc2ccc(CN(C)C4CCOCC4)cc2)CCS3(=O)=O)cc1Cl,183 to 184 °C
3,NC(=O)c1cc(I)cc(I)c1O,206 °C
4,CCC(CC)C1CC1(CN)C(=O)O (configuration not stated),255 to 257 °C
5,O=C1N[C@@H](Cc2ccccc2)C(=O)N/C1=C\c1ccccc1,275 to 276 °C
6,COCOc1ccc(COc2cc3c(cc2-c2cc(C=CC(=O)O)ccc2OC)C(C)(C)CCC3(C)C)cc1,106 to 108 °C
7,N#Cc1ccc(Cc2ccc(OCc3ccccc3)cc2)cc1,110 to 111 °C
8,C=CC(=O)Nc1cc2c(N(C(C)=O)c3ccc(F)c(Cl)c3)ncnc2cc1OCCCN1CCOCC1,143 °C
9,CCNC(=O)c1ccc(N2CCN(Cc3cc4c(c(OC)c3)OCC(=O)N4)CC2)c(C)c1,208 to 225 °C
10,CC(C)n1nc(-c2sc(C(=O)NC3CC3)nc2-c2ccccc2)ccc1=O,127 to 128 °C
11,Cc1oc(-c2ccccc2)nc1COc1ccc(C(C)CCCC#N)cc1 (configuration not stated),76 to 77 °C
12,CCOC(=O)c1cc(C)n(-c2cccc(C(N)=O)c2)c1-c1ccccc1,209 to 210 °C
13,OCCCn1c(C2CCCCC2)nc2cc(Cl)ccc21,95 °C
14,CC1(c2ccc(I)cc2)CO1 (configuration not stated),44 to 45 °C
15,O=S(=O)(c1ccc2c(Cl)cnc(Cl)c2c1)N1CCC[C@@H]1CO,168 °C
16,O=[N+]([O-])c1ccc2c(c1)S(=O)(=O)N=C(NCC1CC1)N2,276 to 278 °C
17,CCc1c(C(=O)c2cc(C)cc(C)c2)n(C/C=C/COC)c(=O)[nH]c1=O,142 to 143 °C
18,O=C(Nc1ccc(F)c([N+](=O)[O-])c1)C(F)(F)F,70 to 75 °C
19,Cn1nc(-c2c(F)cccc2Cl)nc1-c1sc(Br)c(Cl)c1Cl,178 to 180 °C
20,CN(C)Cc1nc(C(=O)N(C)C)nn1-c1ccc(Cl)cc1C(=O)c1ccccc1F,140 to 142 °C
21,CC1=C(C(=O)O)C(c2ccccc2[N+](=O)[O-])C(C(=O)O)=C(C)N1,120 to 122 °C
22,O=C1Nc2ccccc2CC(C(=O)Nc2ccc(Br)cc2)C1=O (configuration not stated),226 to 228 °C
